The source made the active and inactive calls. No cut-off for these calls is given here.

The test system of data set [1] is Plasmodium falciparum. The data set is described as follows: Antimalarial activity against asynchronous chloroquine-sensitive Plasmodium falciparum 3D7 assessed as parasite growth inhibition infected in erythrocytes incubated for 72 hrs by SYBR green dye based assay. It is filed as functional, organism-based. The note with it: 3D7, 72 h.
The test system of data set [2] is Plasmodium falciparum. Nature of the data set: Antimalarial activity against asynchronous chloroquine-resistant Plasmodium falciparum K1 assessed as parasite growth inhibition infected in erythrocytes incubated for 72 hrs by SYBR green dye based assay. It is filed as functional, organism-based. The conditions noted are these: K1, 72 h.
Data set [3] relates to THP-1. Nature of the data set: Antiinflammatory activity against human THP-1 cells assessed as inhibition of LPS-induced TNFalpha level at 10 uM incubated for 12 to 14 hrs followed by compound replenishment for 1 hr and subsequent LPS treatment for 4 hrs by ELISA assay (reference value: 93.43 %). It is filed as functional. Also noted: scale not given: the % may be the effect or the level left. The conditions noted are these: time 17-19 hrs. For orientation: ELISA stands for enzyme-linked immunosorbent assay.

A further data set has as its system HEK-293T. The data set is described as follows: Antiinflammatory activity against HEK293T cells assessed as fold increase in TNFalpha-induced NF-kappaB activity at 10 uM incubated for 1 hr followed by TNFalpha treatment for 5 hrs by luciferase based assay (reference value: 17.1). It is filed as functional, Homo sapiens.
Data set [4] deals with THP-1. The data set is described as follows: Cytotoxicity against LPS-stimulated human THP-1 cells assessed as cell viability at 10 uM incubated for 12 hrs followed by LPS treatment measured after 4 hrs by PI staining based flow cytometry. It is filed as functional. The note with it: time 16.0 hrs. Background: In flow cytometry, cells or beads pass a laser one at a time.
Data set [5] is described as follows: Cytotoxicity against African green monkey Vero cells incubated for 3 days by fluorescence based assay. It is filed as toxicity, cell-based. The conditions noted are these: chlorocebus sabaeus, time 3 day.
Data set [6] concerns Plasmodium yoelii. Nature of the data set: Antimalarial activity against chloroquine-resistant Plasmodium yoelii N67 infected in Swiss mouse assessed as parasite growth suppression at 100 mg/kg/day, po for 4 days measured on day 4 relative to control. It is filed as functional. The note with it: time 4 day.
Data set [7] concerns Plasmodium yoelii. Nature of the data set: Antimalarial activity against chloroquine-resistant Plasmodium yoelii N67 infected in Swiss mouse assessed as parasite growth suppression at 100 mg/kg/day, po for 4 days measured on day 7 relative to control. The conditions noted are these: time 7 day. It is filed as functional.
Data set [8] is described as follows: Toxicity in Swiss mouse infected with chloroquine-resistant Plasmodium yoelii N67 assessed as mean survival time at 100 mg/kg/day, po for 4 days (reference value: 7.2 +/- 1.3 day). It is filed as organism-based. The note with it: in vivo, 96 h, time 4 day.

As to `O=C1C=C(O)CO1`, the IC50 (in general, the concentration needed to halve the response being measured) is 4.88 µM with Plasmodium falciparum [1] and greater than 5 µM in the data set with Plasmodium falciparum [2].
Turning to `Cc1c(C(=O)Nc2ccccc2)c(-c2ccccc2)c(-c2ccccc2)n1CC1=CC(=O)OC1O` (stereo not given), the IC50 in the data set on Plasmodium falciparum [1] is 1.42 µM. The Activity in the data set on THP-1 [3] is listed as 78.73%. Moreover, the “fold change (FC)” value with HEK-293T is 10.6. Besides, in the data set with THP-1 [4], the outcome was Active.
Take `Cc1c(C(=O)Nc2ccccc2)c(-c2ccccc2)c(-c2ccc(C(C)C)cc2)n1C`: the concentration for half-maximal inhibition (IC50) was 2.94 µM in the data set with Plasmodium falciparum [1] and 4.34 µM in the data set on Plasmodium falciparum [2].
On to `Cc1c(C(=O)Nc2ccccc2)c(-c2ccccc2)c(-c2ccc(F)cc2)n1CC1=CC(=O)OC1O` (stereo not given), for which the IC50 in the data set with Plasmodium falciparum [1] came to 2.66 µM. Also, in the data set with THP-1 [3], the Activity was determined as 83.11%. In addition, the “fold change (FC)” value with HEK-293T was 10.3. In addition, in the data set on THP-1 [4], the result was Active.
Regarding `Cc1ccc(-c2c(C(=O)Nc3ccccc3)c(C)n(CCC3=CC(=O)OC3O)c2-c2ccc(C)cc2)cc1` (stereo not given), the half-maximal inhibitory concentration (IC50) with Plasmodium falciparum [1] was greater than 5 µM.
On to `Cc1ccc(-c2c(-c3ccccc3)c(C(=O)Nc3ccccc3)c(C)n2CC2=CC(=O)OC2O)cc1` (stereo not given), for which, in the data set on Plasmodium falciparum [1], the half-inhibitory concentration (IC50) is 1.31 µM. For the same compound, the Activity with THP-1 [3] amounted to 84%. Besides, the “fold change (FC)” value with HEK-293T was determined as 12.5. The outcome in the data set on THP-1 [4] was Active.
As for `Cc1c(C(=O)Nc2ccccc2)c(-c2ccccc2)c(-c2ccc(F)cc2)n1CCC1=CC(=O)OC1O` (stereo not given), the IC50 was 0.88 µM in the data set with Plasmodium falciparum [1] and 4.31 µM with Plasmodium falciparum [2]. Also, in data set [5], the CC50 – broadly, the concentration at which the toxic effect on the cells reaches its halfway point – at 72 h was greater than 200 µM. Further, the Activity was determined as 56.4% in the data set on Plasmodium yoelii [6], 46.6% in the data set with Plasmodium yoelii [7] and 89.15% in the data set with THP-1 [3]. In data set [8], the MST was found to be 8 days. In the data set on HEK-293T, the “fold change (FC)” value is given as 11.4. In the data set with THP-1 [4], the outcome was Active.
As for `Cc1c(C(=O)Nc2ccccc2)c(-c2ccccc2)c(-c2ccccc2)n1CCC1=CC(=O)OC1O` (stereo not given), in the data set on Plasmodium falciparum [1], the concentration for half-maximal inhibition (IC50) came out at 2.83 µM. Besides, the Activity in the data set on THP-1 [3] is recorded as 13.5%. In the data set with HEK-293T, the “fold change (FC)” value stood at 10.3. The result with THP-1 [4] was Active.
As for `COc1ccc(-c2c(-c3ccccc3)c(C(=O)Nc3ccccc3)c(C)n2CC2=CC(=O)OC2O)cc1` (stereo not given), in the data set on Plasmodium falciparum [1], the IC50 stood at 3.39 µM. Further, the Activity in the data set with THP-1 [3] is recorded as 79.88%. Also, in the data set with HEK-293T, the “fold change (FC)” value is 10.4. In the data set with THP-1 [4], the outcome was Active.
As to `Cc1c(C(=O)Nc2ccccc2)c(-c2ccccc2)c(-c2ccc(Cl)cc2)n1CC1=CC(=O)OC1O` (stereo not given), the IC50 with Plasmodium falciparum [1] was found to be 1.36 µM. For the same compound, the Activity in the data set on THP-1 [3] came to 88.38%. Besides, in the data set with HEK-293T, the “fold change (FC)” value is recorded as 12.1. Besides, in the data set on THP-1 [4], the result was Active.
`Cc1ccc(-c2c(-c3ccccc3)c(C(=O)Nc3ccccc3)c(C)n2CCC2=CC(=O)OC2O)cc1` (stereo not given): the IC50 stood at 0.6 µM in the data set with Plasmodium falciparum [1] and 3.92 µM with Plasmodium falciparum [2]. In addition, the CC50 at 72 h in data set [5] is greater than 200 µM. Further, the results for the Activity in the data set on Plasmodium yoelii [6], in the data set on Plasmodium yoelii [7] and in the data set with THP-1 [3] were 34.6%, 80.68% and 46.46%, respectively. Also, the MST in [8] was found to be 14.6 days. Moreover, the “fold change (FC)” value in the data set with HEK-293T is on record as 13.1. Also, the outcome in the data set with THP-1 [4] was Active.
Take `CCc1ccc(-c2c(-c3ccccc3)c(C(=O)Nc3ccccc3)c(C)n2CC2=CC(=O)OC2O)cc1` (stereo not given): in the data set with Plasmodium falciparum [1], the IC50 worked out at 1.21 µM. In addition, the Activity with THP-1 [3] came to 89.97%. Besides, the “fold change (FC)” value in the data set with HEK-293T is 7. For the same compound, in the data set with THP-1 [4], the result was Active.
As for `COc1ccc(-c2c(C(=O)Nc3ccccc3)c(C)n(CC3=CC(=O)OC3O)c2-c2ccc(OC)cc2)cc1` (stereo not given), the half-inhibitory concentration (IC50) with Plasmodium falciparum [1] worked out at 1.8 µM. Moreover, in the data set on THP-1 [3], the Activity is 19.82%. Further, in the data set with HEK-293T, the “fold change (FC)” value is recorded as 9.8. Besides, the result in the data set on THP-1 [4] was Active.

For the origin of these results see ChEMBL document CHEMBL5360578, “Design, synthesis and evaluation of novel pyrrole-hydroxybutenolide hybrids as promising antiplasmodial and anti-inflammatory agents” (Eur J Med Chem, 2023).
